Experimental data: paper PMC7106779 (2017)
“Also recorded” adds a separate entry of the source.

system: Sap9; assay: purified recombinant Sap9; settings: C. albicans, 37 °C, up to 2 h

Sequence | cleaved bond | fragment found
DSHAKRHHGYKRKFHEKHHSHRGY | K17-H18; also recorded: R12-K13; also recorded: K13-F14; also recorded: H18-H19 | –
DSHAKRHHGYKRRFHEKHHSHRGY | – | amino acids 1–17; also recorded: amino acids 18–24
DSHAKRHHGYLRKFHEKHHSHRGY | – | amino acids 1–17; also recorded: amino acids 18–24
DSHAKRHHGYRRKFHEKHHSHRGY | – | amino acids 1–17; also recorded: amino acids 18–24
DSHALRHHGYKRKFHEKHHSHRGY | – | amino acids 1–17; also recorded: amino acids 18–24
DSHARRHHGYKRKFHEKHHSHRGY | – | amino acids 1–17; also recorded: amino acids 18–24
